{
  "source": "patent US12274727B2",
  "about": "(Bazelet Health Systems, Inc., priority 2021, dated 2025)",
  "origin": "cited, not measured here",
  "key": {"[1]": {"assay": "not given", "remark": "listed apart in the source"}, "[2]": {"assay": "not given", "remark": "listed apart in the source"}, "[3]": {"details": "with piperine, chronic or single dose regimen"}, "[4]": {"details": "room temperature"}, "[5]": {"details": "patch testing in Europe"}, "[6]": {"assay": "not given", "remark": "listed apart in the source"}, "[7]": {"details": "after one single oral administration"}},
  "data": [
    {"smiles": "C=C(C)[C@@H]1CCC(C)=C[C@H]1c1c(O)cc(CCCCC)cc1O", "note": "[CBD, Cannabidiol]", "values": [
      {"measurement": "sublingually absorbed", "setting": "emulsified (micronized) CBD products", "value": "up to 35%"},
      {"measurement": "oral bioavailability", "setting": "oral, humans", "value": "approximately 6%"},
      {"measurement": "bioavailability from smoked product", "setting": "smoked", "value": "around 31%"},
      {"measurement": "sublingual bioavailability", "setting": "sublingual", "value": "13-19%"},
      {"measurement": "transdermal absorption", "setting": "transdermal", "value": "about 10%"},
      {"measurement": "formation of THC, yield", "setting": "[1]; artificial gastric fluid without pepsin, first study", "value": 2.9, "unit": "%"},
      {"measurement": "conversion into THC (both 8 and 9 isomers)", "setting": "[1]; simulated gastric fluid, another study", "value": "about 49%"},
      {"measurement": "degradation by light, average values", "setting": "[2]; after 30 days", "value": "up to 15%"},
      {"measurement": "maximum degradation, average values", "setting": "[2]; stored at 37° C. for 30 days", "value": "up to 20%"},
      {"measurement": "increase in oral bioavailability compared to control group without piperine", "setting": "[3]", "value": "~2.5", "unit": "fold"}
    ]},
    {"smiles": "CC(C)=CCC1C(=O)C(C(=O)CC(C)C)=C(O)C(O)(CC=C(C)C)C1=O", "note": "(stereo not drawn) [Humulone, humulone]", "values": [
      {"measurement": "time to degradation", "setting": "[4]", "value": "about 12 weeks"}
    ]},
    {"smiles": "C=CC(C)(O)CCC=C(C)C", "note": "(stereo not drawn) [Linalool]", "values": [
      {"measurement": "people found to be allergic to the oxidized form", "setting": "[5]", "value": 7, "unit": "%"}
    ]},
    {"smiles": "C=C(C)[C@@H]1CCC(C)=C[C@H]1c1c(O)cc(CCCCC)cc1O", "note": "[pharmaceutical CBD]", "values": [
      {"measurement": "patients reporting similar AEs", "setting": "[6]; another trial", "value": 86, "unit": "%"},
      {"measurement": "patients with AEs reported", "setting": "[6]; randomized controlled trial in treatment resistant epilepsy", "value": 93, "unit": "%"}
    ]},
    {"smiles": "C=C1CC/C=C(\\C)CC[C@@H]2[C@@H]1CC2(C)C", "note": "[β-caryophyllene]", "values": [
      {"measurement": "Tmax", "setting": "[7]", "value": "> 1", "unit": "h"}
    ]}
  ]
}
